The source of these data is article PMC4475420 (Chemistry & biology, 2015).

What all share (assay): PK/LDH coupled NADH oxidation assay, […] nm
Common to all, as to type: biochemical

One assay has as its target T1, OtsA(Sco) (Streptomyces coelicolor, UniProt Q9KXV1).
T1 sequence (Q9KXV1 1-462): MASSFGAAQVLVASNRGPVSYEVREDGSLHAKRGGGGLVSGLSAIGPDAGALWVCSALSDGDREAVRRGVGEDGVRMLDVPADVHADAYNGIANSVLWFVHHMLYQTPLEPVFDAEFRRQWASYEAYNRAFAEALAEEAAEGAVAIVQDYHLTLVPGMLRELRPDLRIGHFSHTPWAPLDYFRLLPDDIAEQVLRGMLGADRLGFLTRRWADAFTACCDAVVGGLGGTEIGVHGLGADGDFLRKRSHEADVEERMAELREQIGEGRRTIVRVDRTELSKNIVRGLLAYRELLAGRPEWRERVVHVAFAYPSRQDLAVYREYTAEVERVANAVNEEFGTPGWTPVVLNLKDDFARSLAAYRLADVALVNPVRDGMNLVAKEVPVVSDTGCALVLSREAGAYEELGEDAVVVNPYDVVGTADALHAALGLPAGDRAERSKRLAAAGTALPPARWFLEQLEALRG
The conditions noted are these: 5 mM MgCl2, Tris-HCl pH 7.5.

The subject of the next assay is Chimera-1. The following applies: 5 mM MgCl2, Tris-HCl pH 7.5.
For a further assay, the target named is VldE (Streptomyces hygroscopicus, UniProt Q15JG1). The following applies: 2 mM validamine 7-phosphate, 5 mM MgCl2, Tris-HCl pH 7.5.
Sequence of VldE (Q15JG1 whole entry): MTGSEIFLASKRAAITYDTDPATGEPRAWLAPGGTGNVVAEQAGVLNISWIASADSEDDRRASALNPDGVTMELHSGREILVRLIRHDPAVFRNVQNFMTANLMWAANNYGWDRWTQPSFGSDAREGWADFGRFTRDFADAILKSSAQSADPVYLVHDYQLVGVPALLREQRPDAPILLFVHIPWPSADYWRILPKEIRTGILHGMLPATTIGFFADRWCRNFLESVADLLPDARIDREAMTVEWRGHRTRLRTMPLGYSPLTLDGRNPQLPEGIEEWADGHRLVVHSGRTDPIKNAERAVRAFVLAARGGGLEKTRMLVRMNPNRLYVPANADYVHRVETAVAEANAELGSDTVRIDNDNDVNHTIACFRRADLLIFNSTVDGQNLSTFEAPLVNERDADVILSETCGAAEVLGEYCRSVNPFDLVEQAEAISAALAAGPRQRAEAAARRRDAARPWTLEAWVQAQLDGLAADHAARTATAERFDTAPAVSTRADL
For another assay, the system named is Chimera-2. The following applies: 5 mM MgCl2, Tris-HCl pH 7.5.

`Nc1ccn([C@@H]2O[C@H](COP(=O)(O)OP(=O)(O)O[C@H]3O[C@H](CO)[C@@H](O)[C@H](O)[C@H]3O)[C@@H](O)[C@H]2O)c(=O)n1` [CDP-glucose]: the Km at OtsA(Sco) (2 mM glucose 6-phosphate) is over 4 mM.

Regarding `Nc1nc2c(ncn2[C@@H]2O[C@H](COP(=O)(O)OP(=O)(O)O[C@H]3O[C@H](CO)[C@@H](O)[C@H](O)[C@H]3O)[C@@H](O)[C@H]2O)c(=O)[nH]1` [GDP-glucose], the Km is 1.1 ± 0.07 mM in the assay on Chimera-1 (2 mM validamine 7-phosphate), over 2.2 mM on VldE and 3.56 ± 0.38 mM with Chimera-2 (2 mM glucose 6-phosphate).

Turning to `Nc1nc2c(ncn2[C@@H]2O[C@H](COP(=O)(O)OP(=O)(O)O[C@H]3C=C(CO)[C@@H](O)[C@H](O)[C@H]3O)[C@@H](O)[C@H]2O)c(=O)[nH]1` [GDP-valienol], the Km with Chimera-1 (2 mM validamine 7-phosphate) is over 10 mM.

On to `O=P(O)(O)OC[C@H]1C[C@H](O)[C@H](O)[C@@H](O)[C@@H]1O` [validol 7-phosphate], for which the Km is over 10 mM at OtsA(Sco) (2 mM GDP-glucose) and 4.95 ± 0.7 mM in the assay with Chimera-2 (2 mM GDP-glucose).

Turning to `N[C@H]1C[C@H](COP(=O)(O)O)[C@@H](O)[C@H](O)[C@H]1O` [validamine 7-phosphate], the Km with Chimera-1 (2 mM GDP-glucose) amounted to 0.975 ± 0.1 mM.

`O=P(O)(O)OC[C@H]1OC(O)[C@H](O)[C@@H](O)[C@@H]1O` (stereo partly drawn) [glucose 6-phosphate]: in the assay with Chimera-2 (2 mM GDP-glucose), the Km turned out to be 6.44 ± 0.95 mM.

By Km is commonly meant the substrate concentration at which the rate is half of its maximum.
